Assay results as given in patent US20130231365A1, “Treatment of Inflammation with Certain Alpha-7 Nicotinic Acid Receptor Agonists in Combination with Acetylcholinesterase Inhibitors” (priority 2010, published 2013).

Target: T1, human alpha7 receptor (Homo sapiens, UniProt P36544)
T1 construct: expressed in transfected cells; host or cells: Xenopus laevis oocytes (cDNA injected into the germinal vesicle)
Assay: Acetylcholine-evoked currents in Xenopus oocytes with co-application of the alpha7 agonist
Format: cell-based
Protocol: FIG. 1 depicts a protocol for administering acetylcholine and (R)-7-chloro-N-(quinuclidin-3-yl)benzo[b]thiophene-2-carboxamide hydrochloride monohydrate to Xenopus oocytes.
FIG. 2 depicts the results of an assay showing the action of acetylcholine and (R)-7-chloro-N-(quinuclidin-3-yl)benzo[b]thiophene-2-carboxamide hydrochloride monohydrate.
In the study described below currents were measures in Xenopus oocytes. Acetylcholine at 40 micromolar was administered prior to administration of (R)-7-chloro-N-(quinuclidin-3-yl)benzo[b]thiophene-2-carboxamide is (R)-7-chloro-N-(quinuclidin-3-yl)benzo[b]thiophene-2-carboxamide hydrochloride monohydrate at 0.3 nM using the protocol depicted in FIG. 1. Currents were normalized to unity versus the average acetylcholine-evoked current measured during the stabilization period (4 time points).
The EC50 for an alpha7 receptor agonist can be measured using Xenopus oocytes as described previously (Boess et al. 2007 J Pharm Exp Therap 321:716; Methfessel et al., 1986 Pflueg Arch Eur J Physiol 407:577-588; Schnizler et at 2003 Receptors Channels 9:41-48). […] Solutions of test compounds in normal frog Ringer's solution are superfused through the recording chamber for 20 s while the voltage-clamp current is recorded. […] By testing with various concentration of the alpha7 receptor agonist the EC50 for agonism can be determined.

T1 sequence (P36544 23-502): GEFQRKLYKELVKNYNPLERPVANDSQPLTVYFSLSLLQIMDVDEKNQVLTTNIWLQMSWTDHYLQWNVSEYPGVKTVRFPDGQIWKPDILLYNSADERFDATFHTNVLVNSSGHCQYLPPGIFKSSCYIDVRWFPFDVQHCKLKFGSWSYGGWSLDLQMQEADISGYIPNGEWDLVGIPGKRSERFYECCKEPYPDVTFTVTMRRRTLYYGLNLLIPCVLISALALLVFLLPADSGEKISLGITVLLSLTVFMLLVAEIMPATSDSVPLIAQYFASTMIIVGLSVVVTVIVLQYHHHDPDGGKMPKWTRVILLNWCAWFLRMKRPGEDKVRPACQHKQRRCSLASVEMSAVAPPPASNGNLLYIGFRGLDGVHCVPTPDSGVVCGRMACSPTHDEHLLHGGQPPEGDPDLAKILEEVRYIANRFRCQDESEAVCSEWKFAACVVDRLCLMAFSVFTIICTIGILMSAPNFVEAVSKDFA

Cl.O=C(N[C@H]1CN2CCC1CC2)c1cc2cccc(Cl)c2s1 [(R)-7-chloro-N-(quinuclidin-3-yl)benzo[b]thiophene-2-carboxamide hydrochloride monohydrate]
acetylcholine-evoked current, normalized to unity versus the average current of the stabilization period (acetylcholine 40 micromolar given before compound at 0.3 nM, after 8 and 16 minutes incubation, average of 3 cells, FIG. 2): large current increase | effect when administered with acetylcholine (very low concentrations of compound, well below the expected EC50): synergistic effect
